For 19 molecules, melting point results are on record in US7022733B2, “Substituted 2-phenyl benzofurans as estrogenic agents” (Wyeth, priority 2001, dated 2006).

For orientation: melting point means the temperature, or range, at which the solid turns liquid.

Structures are written as SMILES.

As for `CCCOC(=O)c1cc(O)cc2cc(-c3ccc(O)cc3)oc12` [Example 37, 5-Hydroxy-2-(4-hydroxy-phenyl)-benzofuran-7-carboxylic acid propyl ester], the melting point lay within 220 to 222 °C.

As to `COC(=O)c1cc(O)cc2cc(-c3ccc(O)cc3)oc12` [Example 38, 5-Hydroxy-2-(4-hydroxy-phenyl)-benzofuran-7-carboxylic acid methyl ester], the melting point lay in the range of 236 to 238 °C.

The molecule `CCOC(=O)c1cc(O)cc2cc(-c3ccc(O)cc3)oc12` [Example 39, 5-Hydroxy-2-(4-hydroxy-phenyl)-benzofuran-7-carboxylic acid ethyl ester] returned a melting point of 221 to 223 °C.

Turning to `COC(=O)C=Cc1cc(O)cc2cc(-c3ccc(O)cc3)oc12` [Example 59, 3-[5-Hydroxy-2-(4-hydroxy-phenyl)benzofuran-7-yl]-acrylic acid methyl ester], the melting point was 231 to 234 °C.

In turn, `COC(=O)CCc1cc(O)cc2cc(-c3ccc(O)cc3)oc12` [Example 60, 3-[5-Hydroxy-2-(4-hydroxy-phenyl)-benzofuran-7-yl]-propionic acid methyl ester] registered a melting point of 167 to 170 °C.

For `NC(=O)C=Cc1cc(O)cc2cc(-c3ccc(O)cc3)oc12` [Example 61, 3-[5-Hydroxy-2-(4-hydroxyphenyl)-benzofuran-7-yl]-acrylamide], the melting point was 275 °C (dec.).

`Oc1ccc(-c2cc3c(Br)c(O)cc(Br)c3o2)cc1` [Example 63, 4,7-Dibromo-2-(4-hydroxy-phenyl)-benzofuran-5-ol] yielded a melting point of 215 to 217 °C.

Molecule `C=Cc1cc(O)cc2cc(-c3ccc(O)cc3)oc12` [Example 67, 2-(4-Hydroxy-phenyl)-7-vinyl-benzofuran-5-ol] showed a melting point of 182 to 184 °C.

Turning to `O=C(c1cc(O)cc2cc(-c3ccc(O)cc3)oc12)C(F)(F)F` [Example 68, 2,2,2-Trifluoro-1-[5-hydroxy-2-(4-hydroxy-phenyl)-benzofuran-7-yl]-ethanone], the melting point fell in the range of 215 to 216 °C.

For `COc1cc(O)c(C=NO)c2cc(-c3ccc(O)cc3)oc12` [Example 72, 5-Hydroxy-2-(4-hydroxy-phenyl)-7-methoxy-benzofuran-4-carbaldehyde oxime], the melting point was 205 °C (dec.).

Consider `COc1cc(O)c(C#N)c2cc(-c3ccc(O)c(F)c3)oc12` [Example 73a, 2-(3-Fluoro-4-hydroxy-phenyl)-5-hydroxy 7-methoxy-benzofuran-4-carbonitrile], for which the melting point lay in the range of 265 to 267 °C.

Take `Cc1cc(O)ccc1-c1cc2cc(O)ccc2o1` [Example 80, 2-(4-Hydroxy-2-methyl-phenyl)-benzofuran-5-ol]: the melting point fell in the range of 167 to 169 °C.

`Oc1ccc(-c2cc3cc(F)ccc3o2)cc1` [Example 91, 4-(5-Fluoro-benzofuran-2-yl)-phenol]: the melting point was in the range of 202 to 204 °C.

With `CC(C)(C)c1ccc2oc(-c3ccc(O)cc3)cc2c1` [Example 92, 4-(5-tert-Butyl-benzofuran-2-yl)-phenol], the melting point was in the range of 172 to 174 °C.

The molecule `Oc1ccc(-c2cc3cc(F)cc(F)c3o2)cc1` [Example 94, 4-(5,7-Difluoro-benzofuran-2-yl)-phenol] gave a melting point of 152 to 154 °C.

The molecule `Oc1ccc(-c2cc3cc(Br)cc(Br)c3o2)cc1` [Example 95, 4-(5,7-Dibromo-benzofuran-2-yl)-phenol] displayed a melting point of 203 to 205 °C.

With `Nc1cc(O)cc2cc(-c3ccc(O)cc3)oc12` [Example 100, 7-Amino-2-(4-hydroxy-phenyl)-benzofuran-5-ol], the melting point is 251 to 254 °C.

With `Oc1ccc(-c2cc3cc(O)ccc3o2)c(Br)c1` [Example 102, 2-(2-Bromo-4-hydroxy-phenyl)-benzofuran-5-ol], the melting point came to 195 °C.

`Oc1ccc2oc(-c3cc(OCc4ccccc4)c(O)cc3-c3ccccc3)cc2c1` [Example 104, 2-(4-Benzyloxy-5-hydroxy-biphenyl-2-yl)-benzofuran-5-ol] came in with a melting point of 186 to 187 °C.
